Where a name gives a salt, the structure may show the parent alone.
Legend:
Type in all cases: physicochemical
[1] = Stability examination of supplied monofumarate material at 40° C./75% RH (Example 5, Experiment Reference 2); settings: 75% RH at 40° C., up to 5 w
[2] = Qualitative solubility screen of the tabernanthalog monofumarate salt in solvents (Example 5, Experiment Reference 1; Example 2)
Description: Consistent with Example 1, samples were dissolved in various solvents/solvent systems and cooled to isolate solid material.
Tabernanthalog fumarate dissolved at 5 vol (200 mg/mL) only at reflux in two solvents, water and methanol. At 15 vol the product dissolved in both refluxing butanol and ethanol. Consistent with Example 1, the dissolved samples were cooled. On cooling, each of the four effective solvents yielded solid material. The solids thus obtained were analyzed by XRPD yielding diffractograms with novel peaks from products isolated from each of the four protic solvents.
The tabernanthalog monofumarate salt (Pattern #1, Sample Reference 1, 25 mg, 1 wt) was weighed out in 20 separate vials to qualitatively examine the solubility in an array of diverse solvents. […] If insoluble at 5 vol, the solvent quantity was increased to 10 vol, 15 vol and 20 vol of the respective solvent. […] The insoluble suspensions were additionally worked up for XRPD analysis. The resultant powder patterns were subsequently cross-referenced against the input supplied material.

[3] = Standing of solid forms over time (form by XRPD)
Excerpt: FIG. 844 depicts the XRPD profile of Experiment 1-Sample D2 (Tabernanthalog·Sorbate, Form A).

[4] = Amorphous study (freeze drying, evaporation, spray drying, bead milling) of monofumarate and sorbate
Excerpt: The purpose of this study was to generate amorphous material to be characterized and used in water activity studies. To achieve this, the two salts were exposed to a variety of techniques in attempts to generate the amorphous forms, including freeze drying, evaporation, vacuum desiccation and cryodesiccation spray drying. These techniques were not successful for the two salts Tabernanthalog·Monofumarate and Tabernanthalog·Sorbate.
Bead milling was attempted to generate the amorphous form of Tabernanthalog·Sorbate (Tabernanthalog·Sorbate, Form A). The salt underwent neat milling and separately with the addition of tetradecafluorohexane (TDFH). The following experiments were performed: Experiment 6-Sample A1 (30 Hz, 2 h), Experiment 6-Sample A2 (30 Hz, 5.5 h) and Experiment 6-Sample A3 (30 Hz 1 h, TDFH), the products from each experiment was analysed by XRPD to determine the extent of crystallinity (FIG. 812). None of the experiments provided amorphous material.
Each salt was charged to a 7 ml vial (50 mg, 1.0 wt). To the vial containing Tabernanthalog·Monofumarate (Tabernanthalog·Monofumarate), was charged water (10.0 vol), to fully dissolve the sample. Tabernanthalog·Sorbate (A1270-076-A1) was taken-up in ethanol/water (15% v/v, 10 vol), a further charge of water (1.0 ml), was added to ensure that the sample dissolved.
Vials containing the salt solutions were placed on the freeze drier apparatus overnight, and the cryo-desiccated products were recovered the following morning and analysed by XRPD each product remained crystalline.
Tabernanthalog·Monofumarate (A1272−082-A2, 51.1 mg, 1.0 wt) was charged to a 7 ml scintillation vial followed by THE (2 ml, […]), the suspension was heated to 50° C., until full dissolution was observed. The vial was stoppered by foil and a pin hole was pierced in the top. The vial was located under a steady N2 stream.
Tabernanthalog·Sorbate (A1270−076-A1, 99.4 mg, 1.0 wt) was charged to a 7 ml scintillation vial, followed by hexafluoroisopropanol (HFIPA, 5.0 vol, 0.5 ml), after which, the sample fully dissolved. The cap was replaced by foil and pierced on the top. Solvent was allowed to evaporate, to afford a dry, brown solid that was analysed by XRPD yielding crystalline pattern #7. Sample were dried under N2 stream for 5 h and reanalysed by XRPD, remaining as pattern #7
Tabernanthalog·Sorbate (A1270−076-A1, 50.0 mg, 1.0 wt) was charged to a 7 ml scintillation vial followed by hexafluoroisopropanol (HFIPA, 0.5 ml, 10 vol), to yield a clear solution. The solution was concentrated to dryness, by rotary evaporation, yielding an oil, that was allowed to stand undisturbed overnight.
Tabernanthalog·Sorbate (A1270−076-A1, 50.0 mg, 1.0 wt) was charged to a 7 ml scintillation vial, followed by methanol (300 μl, 6.0 vol). The solution was clarified by filtration into a 7 ml scintillation vial, containing diethyl ether (1.0 ml, 20.0 vol).
Tabernanthalog·Sorbate (A1270−076-A1, 102 mg, 1 wt) was charged to a 7.0 ml scintillation vial followed by methanol (1.9 ml, 19.0 vol). The solution was loaded into the spray drier apparatus.
The procedure yielded a brown powder (30 mg, 30% th.).
Tabernanthalog·Sorbate (A1270-076-A1, Form A) was charged to a 1.5 ml steel milling-vessel with a single 5 mm ball bearing. The sample was milled for 5.5 h at 30 Hz and yielded an off-white powder, that was analysed by XRPD, no change in crystallinity.

[5] = Thermal study: glass transition temperature (Tg) of amorphous monofumarate and sorbate
Description: Each salt was analysed by DSC and TGA to determine the Tg of the amorphous form. Amorphous forms were generated by thermocycling the salt past the melt temperature, cooling the sample, and once cooled the samples were reheated. Open pan and sealed pan DSC were utilised, open pan DSC were heated past the melt event, cooled, and left to stand under ambient conditions overnight.
Sealed pans were immediately cycled with no time left to stand.
TGA (open pan) samples were analysed by thermocycle, with no time for the sample to stand under ambient conditions.
The amorphous forms were generated in these studies and characterised with their Tg being measured.
A hot stage microscope heating block was used to generate the amorphous phase in-situ, to allow analysis by XRPD. A silicon XRPD sample plate was loaded with the appropriate salt. The plate was heated past the melt event, removed from the hot stage microscope block and cooled to ambient in air and analysed by XRPD to ensure that the amorphous form was generated. The amorphous material was then analysed by ^1H NMR and LC-MS to ensure there was no change in chemical composition.
Two DSC pans were charge with the appropriate salt (Tabernanthalog·Sorbate, A1270−076-A1 and Tabernanthalog·Monofumarate, Tabernanthalog·Monofumarate), the first DSC pan was not sealed (open pan DSC), the second was sealed (hermetic sealed pan DSC). The open pan DSC was cycled from 20° C. to just after the melt event for each, cooled to −20° C. and left to stand under ambient conditions over night. The open pan DSC was then heated to just before the thermal degradation event (Tabernanthalog·Sorbate ca. 160° C., Tabernanthalog·Monofumarate ca. 210° C.) The hermetic sealed DSC was heated from 20° C. to just after the melt event, cooled to −20° C. then headed to just before the same degradation event.
Two TGA crucibles were charged with the appropriate salt (Tabemanthalog·Sorbate, A1270-076-A1, Tabernanthalog·Monofumarate, Tabernanthalog·Monofumarate), both were thermocycled from 20° C. to past the melt event and then cooled to −20° C., each pan was then immediately heated to just before the degradation event to measure the Tg event.

[6] = Stability assessment at 40° C./75% RH (open vial / double bagged open vial); settings: 4-to-5-week period
Description: FIG. 62 depicts the XRPD diffractogram overlay of the time point monitoring of 2-A (open vial) at 75% RH at 40° C. Overlay of, from bottom to top, the tabernanthalog monofumarate (Sample Reference 1, t=0), 2-A1 (t=3 h), 2-A2 (t=24 h), 2-A3 (t=48 h), 2-A4 (t=7 days), 2-A5 (t=2 weeks), 2-A6 (t=3 weeks), 2-A7 (t=4 weeks), 2-A8 (t=5 weeks).
FIG. 63 depicts the XRPD diffractogram overlay of the time point monitoring of 2-B (double bagged open vial) at 75% RH at 40° C. Overlay of, from bottom to top, the tabernanthalog monofumarate salt (Sample Reference 1, t=0), 2-B1 (t=3 h), 2-B2 (t=24 h), 2-B3 (t=48 h), 2-B4 (t=7 days), 2-B5 (t=2 weeks), 2-B6 (t=3 weeks), 2-B7 (t=4 weeks), 2-B8 (t=5 weeks).

[7] = Amorphisation activity: Antisolvent/N2 Flow, 50 mg
[8] = Amorphisation activity: Freeze dry, 50 mg
[9] = Amorphisation activity: HFIP Evaporation, 50 mg
[10] = Amorphisation activity: Milling, 50 or 100 mg
[11] = Amorphisation activity: Rotary Vac (MeOH), 50 mg
[12] = Amorphisation activity: Spray drying (15% EtOH/Water), 100 mg
[13] = Amorphisation activity: Spray drying (MeOH), 100 mg
[14] = Amorphisation activity: THF/N2, 50 mg

With COc1ccc2c3c([nH]c2c1)CCN(C)CC3 [tabernanthalog monofumarate salt, 8-methoxy-3-methyl-1H,2H,3H,4H,5H,6H-azepino[4,5-b]indole fumarate] the “physical and chemical stability” value ([1]; open vial and double polyethene bagged, XRPD, HPLC, TGA, DSC, fumarate) was “physically and chemically stable”, the “change in chemical purity (HPLC)” value [1] was “did not show significant changes in chemical purity” and the “solubility in common solvents” value ([2]; variety of solvents) was “sparingly soluble in most of the common solvents investigated”. For the same compound, the solubility ([2]; water, methanol (two separate solvents), water, thermodynamic from solid, reflux, read-out: soluble in methanol/water at reflux) was no less than 200 mg/mL.

With COc1ccc2c3c([nH]c2c1)CCN(C)CC3 [Tabernanthalog•Sorbate] the Outcome ([3]; amorphous Experiment 1-Sample D1 standing overnight, ambient) was “Crystalline”, the “Form by XRPD” value [4, 7] was “Form A” and the Outcome [4, 7] was “Crystalline”. The “Form by XRPD” value [4, 8] was “Form A”, the Outcome [4, 8] was “Crystalline” and the “Form by XRPD” value [4, 9] was “Pattern #7”. For the same compound, the Outcome [4, 9] was “Crystalline and Gum”, the “Form by XRPD” value ([4]; Amorphisation activity: Hot Melt Extrusion (Overnight), 250 mg) was “Form A” and the “Form by XRPD” value ([4]; Amorphisation activity: Hot Melt Extrusion, 250 mg) was “Form A”. For the same compound, the “Form by XRPD” value [4, 10] was “Form A”, the Outcome [4, 10] was “Crystalline” and the “Form by XRPD” value [4, 11] was “Form A”. For the same compound, the Outcome [4, 11] was “Crystalline”, the “Form by XRPD” value [4, 12] was “Form A” and the Outcome [4, 12] was “Crystalline”. For the same compound, the “Form by XRPD” value [4, 13] was “Form A”, the Outcome [4, 13] was “Crystalline” and the “Form by XRPD” value [4, 14] was “Form A”. The Outcome [4, 14] was “Crystalline”, the Outcome ([5]; Hot plate heat up, sorbate 20 to 170 ° C., monofumarate 20 to 210 ° C.) was “Amorphous” and the Outcome ([5]; Hot stage plate heat up, sorbate 20 to 170 ° C., monofumarate 20 to 210 ° C.) was “Amorphous”. The Outcome ([5]; Open Pan DSC, sorbate 20 to 165 to −20, O/N 20 to 230 ° C., monofumarate 20 to 210 to −20, O/N 20 to 210 ° C.) was “Amorphous”, the Outcome ([5]; Sealed DSC, sorbate 20 to 165 to −20 to 230 ° C., monofumarate 20 to 210 to −20 to 210 ° C.) was “Amorphous” and the Outcome ([5]; TGA, sorbate 20 to 165 to −20 to 230 ° C., monofumarate 20 to 210 to −20 to 210 ° C.) was “Amorphous”. The “Glass temperature (Tgs)” value ([5]; amorphous form generated in situ, sealed DSC thermocycle (Sample B1)) was 22 °C.

For C/C=C/C=C/C(=O)O.COc1ccc2c3c([nH]c2c1)CCN(C)CC3 [Experiment 1-Sample D1], the “form by XRPD after standing overnight in ambient conditions” value ([3]; amorphous input, overnight, ambient conditions) was “crystalline material”.

For COc1ccc2c3c([nH]c2c1)CCN(C)CC3 [tabernanthalog monofumarate Pattern #1], the stability assessment [6] was “no evidence for hydrate formation, chemical degradation or disproportionation”.

Source: patent publication US20230257385A1, “SALT AND SOLID FORMS OF TABERNANTHALOG” (priority 2021, published 2023)
